From US12303594B2, “Antimicrobial and anti-inflammatory compositions” (The Texas A&M University System, priority 2015, dated 2025)

Key:
[1] = Helium pycnometry true density; format: physicochemical; conditions: N = 3
Procedure: Helium pycnometry: True densities were measured using an MVP-D160-E multipycnometer (Quantrachrome Instruments; FL, USA) equipped with the micro cell and adapter. Measurements were conducted in triplicates. Before pressure measurements, the multipycnometer was purged with helium gas according to the manufacturer's recommendations.
True densities were measured using a MVP-D160-E multipycnometer (Quantrachrome Instruments; FL, USA). For density measurements, the micro cell and the micro cell adapter were used, and samples weighed at least 0.1 g for the jet-milled powders depending on availability and at least 0.6 g for the unprocessed powders.

PA01 [2] = test: Endpoint CFU counting; conditions: 6 hours in MH, free ibuprofen
[3] = test system: methicillin-resistant Staphylococcus aureus (strain MRSA 0646); test: Minimum inhibitory concentration (MIC); format: cell-based; conditions: alone, read-out: MIC
Procedure: (§1) The final concentrations of aztreonam, ceftazidime and vancomycin were 0.06, 0.13, 0.25, 0.5, 1, 2, 4, 8, 16, 32, 64, and 128 μg/ml. The plates were incubated overnight at 37° C. […] Each triplicate was performed at least twice.

[4] = test system: Pseudomonas aeruginosa (strain PA HP3); test: Minimum inhibitory concentration (MIC); format: cell-based; conditions: alone
Procedure: as §1

PA01 [5] = test: In vivo survival study after P. aeruginosa infection; parameters: species or system mice
Procedure: […]. […] […]. Also, the mice were weighed and assigned clinical scores, a semi-quantitative metric that rates their signs of infection from asymptomatic (0) to moribund (6), at the start of the study, at 12 hours, and at the termination of the study. […]. For this study, the mice were administered treatment on the same schedule and were observed continuously for their time of death over the course of 72 hours, by the end of which any surviving mice begin to recover. […].

[6] = test system: Staphylococcus aureus vancomycin-intermediate (VISA) strain (Mu50); test: Endpoint CFU counting; conditions: 6 hours in MH, free ibuprofen
[7] = Solubilization in aqueous DMSO/phosphate buffer solution; format: physicochemical; conditions: aqueous solution of 1% v/v DMSO in phosphate buffer, DMSO (1% v/v) and phosphate (PO4) buffer, read-out: concentration solubilized
[8] = test system: Pseudomonas aeruginosa, PA01; test: In vitro bacterial growth study (OD600); conditions: 10 μg/mL or 1 μg/mL ibuprofen solution added 1:1 (v:v)
[9] = test system: Escherichia coli strain EC J53+pmg101; test: In vitro bacterial growth study (OD600); format: cell-based; conditions: 10 μg/mL or 1 μg/mL ibuprofen solution added 1:1 (v:v)

CC(C)Cc1ccc(C(C)C(=O)O)cc1 (centres unmarked) [ibuprofen, 2(4-isobutylphenyl)propanoic acid]
ρ (true density) [1]: 1.14 ± 0.00 g/mL
CFU (PA01 [2]): Significant reduction in CFU
MIC [3]: > 128 µg/mL
MIC [4]: > 128 µg/mL
survival (PA01 [5]; 72 hours, treated mice): 92%
weight loss (PA01 [5]; day 3): less weight loss
clinical scores (PA01 [5]; days 2 and 3): significantly better clinical scores
CFU [6]: Significant reduction in CFU
solubility [7]: ≤ 5000 µg/mL
bacterial growth (OD600) [8]: slowed and/or delayed the growth
bacterial growth (OD600) [9]: slowed and/or delayed the growth
